Results: patent US20080221115A1, “Use of long-chain alcohol derivatives for the treatment of alopecia areata” (priority 2007, published 2008)

Tests used:
[1] = tested on: alopecia greata in C3H/HeJ mice; settings: for effective in treating the alopecia greata in C3H/HeJ mice: conclusion in words from Example 1; for Average score: hair amount and hair growth in biopsies from mustache, face, head, neck, back, stomach graded 1 (no hair) to 5 (full growth), averaged per group, day 93, negative control (PBS) 2.48; for Average score / Overall score: 25 mg/ml in PBS, topical; for Overall score: overall appearance graded on a scale of 1 (50% of mouse hairless) to 5 (full hair), group mean, 40 μl per cm^2 lesion, day 93 from the beginning of the treatment, negative control (PBS) 2.7
Method: The young mice will develop the disease subsequent to grafting.
Lesional grafts from old C3H/HeJ mice were grafted onto young C3H/HeJ mice. On day 30-40 post-graft the mice were randomized into groups with approximately the same degree of alopecia greata pathology.
Group 1: negative control, phosphate buffered saline (PBS).
Treatment was initiated on the day of randomization into groups. Mice were treated by providing 40 μl of solution per cm^2 lesion. The solution was evenly spread and was allowed to soak into the skin. Mice were observed twice weekly and the size of patches was measured and documented.
Treatment solutions were prepared freshly each day.
At the end of the study, skin biopsies were evaluated in a blinded manner. The hair amount and hair growth from biopsies from mice mustache, face, head, neck, back, and stomach were graded from 1 to 5. A rating of 1 represented no hair, and a rating of 5 represented full growth. These scores were calculated for each mouse and averaged, and the average for each group is shown below as “average score.”
In addition, the mice were graded based on their overall appearance on a scale of 1 to 5 for “overall score.”
Score 1=50% of mouse hairless.
Score 2=20-40% of mouse hairless.
Score 3=hairless patch covering up to 20% of mouse.
Score 4=thin hair, or local small hairless patch.
There were 7 mice in each of the test compound groups and 5 mice in the negative control group.
The scoring occurred on day 93 from the beginning of the treatment.

[2] = tested on: delayed-type hypersensitivity model in mice; settings: disclosed in WO 2004/032824; cited from earlier work
[3] = tested on: EAE model in rats; settings: disclosed in WO 2004/032824; cited from earlier work

CCCCCCCC/C=C\CCCCCCCCOC(=O)C(N)c1ccccc1.Cl (stereo not drawn) [compound 1, amino-phenyl-acetic acid octadec-(Z)-9-enyl ester HCl]
effective in treating the alopecia greata in C3H/HeJ mice [1]: effective
Average score [1]: 3.11
Overall score [1]: 3.5
results in a delayed-type hypersensitivity model in mice [2]: positive results

CCCCCCCC/C=C\CCCCCCCCOC(=O)CN1CCNCC1.O=C(O)C(O)C(O)C(=O)O [compound 2]
effective in treating the alopecia greata in C3H/HeJ mice [1]: effective
Average score [1]: 2.91
Overall score [1]: 3.5
results in a delayed-type hypersensitivity model in mice [2]: positive results
results in an EAE model in rats [3]: positive results
